Measured values from ChEMBL document CHEMBL4699569, “Rapid discovery of a selective butyrylcholinesterase inhibitor using structure-based virtual screening” (Bioorg Med Chem Lett, 2020).

Columns and labels:
Cholinesterase [1] = molecular target: T1, Cholinesterase (Equus caballus, UniProt P81908); assay: Inhibition of equine serum BuChE; type: cell-free
Acetylcholinesterase = Acetylcholinesterase (Electrophorus electricus, UniProt O42275); assay: Inhibition of electric eel AChE at 100 uM
Cholinesterase [2] = molecular target: Cholinesterase (Homo sapiens, UniProt P06276); assay: Inhibition of human BuChE at 10 uM
[3] = molecular target: Acetylcholinesterase (Homo sapiens) (UniProt P22303); assay: Inhibition of human recombinant AChE at 200 uM
Cholinesterase [4] = molecular target: T1, Cholinesterase; assay: Mixed inhibition of equine serum BChE using butyrylthiocholine iodide as substrate; type: cell-free
[5] = Permeability of compound by PAMPA-BBB assay; type: ADME; conditions: read-out: permeability

T1 sequence (P81908 whole entry): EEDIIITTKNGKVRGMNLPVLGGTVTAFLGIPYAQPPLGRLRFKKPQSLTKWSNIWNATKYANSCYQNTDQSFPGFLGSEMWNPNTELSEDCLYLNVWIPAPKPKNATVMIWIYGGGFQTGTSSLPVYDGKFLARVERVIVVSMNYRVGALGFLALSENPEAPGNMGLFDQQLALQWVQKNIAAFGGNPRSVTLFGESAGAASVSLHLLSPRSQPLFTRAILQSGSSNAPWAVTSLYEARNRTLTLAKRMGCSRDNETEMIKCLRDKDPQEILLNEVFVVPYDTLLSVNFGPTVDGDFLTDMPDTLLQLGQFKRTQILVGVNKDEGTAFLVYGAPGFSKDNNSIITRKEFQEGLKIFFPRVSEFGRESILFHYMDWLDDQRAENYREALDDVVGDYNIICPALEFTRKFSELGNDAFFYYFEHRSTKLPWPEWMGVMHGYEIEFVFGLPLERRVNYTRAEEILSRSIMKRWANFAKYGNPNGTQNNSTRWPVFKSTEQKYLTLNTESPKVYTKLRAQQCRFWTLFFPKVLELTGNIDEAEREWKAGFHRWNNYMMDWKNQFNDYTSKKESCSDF
Sequence of Acetylcholinesterase (O42275 whole entry): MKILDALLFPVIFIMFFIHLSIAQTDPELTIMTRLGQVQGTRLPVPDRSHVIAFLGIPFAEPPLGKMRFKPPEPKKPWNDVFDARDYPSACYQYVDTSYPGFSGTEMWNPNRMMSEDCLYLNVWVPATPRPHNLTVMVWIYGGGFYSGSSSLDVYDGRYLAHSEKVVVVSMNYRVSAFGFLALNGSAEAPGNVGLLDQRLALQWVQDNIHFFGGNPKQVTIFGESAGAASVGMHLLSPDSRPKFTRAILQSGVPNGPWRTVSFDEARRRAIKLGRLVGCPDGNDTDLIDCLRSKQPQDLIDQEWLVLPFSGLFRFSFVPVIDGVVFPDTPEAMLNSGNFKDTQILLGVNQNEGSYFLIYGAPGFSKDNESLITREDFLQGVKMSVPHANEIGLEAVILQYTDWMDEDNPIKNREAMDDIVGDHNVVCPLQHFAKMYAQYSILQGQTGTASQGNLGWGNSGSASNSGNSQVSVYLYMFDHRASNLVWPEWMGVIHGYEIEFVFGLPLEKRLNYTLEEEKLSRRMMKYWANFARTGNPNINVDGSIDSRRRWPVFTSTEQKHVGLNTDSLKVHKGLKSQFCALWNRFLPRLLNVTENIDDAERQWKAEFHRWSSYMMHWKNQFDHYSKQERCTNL
Sequence of Cholinesterase (Homo sapiens, UniProt P06276) (P06276 whole entry): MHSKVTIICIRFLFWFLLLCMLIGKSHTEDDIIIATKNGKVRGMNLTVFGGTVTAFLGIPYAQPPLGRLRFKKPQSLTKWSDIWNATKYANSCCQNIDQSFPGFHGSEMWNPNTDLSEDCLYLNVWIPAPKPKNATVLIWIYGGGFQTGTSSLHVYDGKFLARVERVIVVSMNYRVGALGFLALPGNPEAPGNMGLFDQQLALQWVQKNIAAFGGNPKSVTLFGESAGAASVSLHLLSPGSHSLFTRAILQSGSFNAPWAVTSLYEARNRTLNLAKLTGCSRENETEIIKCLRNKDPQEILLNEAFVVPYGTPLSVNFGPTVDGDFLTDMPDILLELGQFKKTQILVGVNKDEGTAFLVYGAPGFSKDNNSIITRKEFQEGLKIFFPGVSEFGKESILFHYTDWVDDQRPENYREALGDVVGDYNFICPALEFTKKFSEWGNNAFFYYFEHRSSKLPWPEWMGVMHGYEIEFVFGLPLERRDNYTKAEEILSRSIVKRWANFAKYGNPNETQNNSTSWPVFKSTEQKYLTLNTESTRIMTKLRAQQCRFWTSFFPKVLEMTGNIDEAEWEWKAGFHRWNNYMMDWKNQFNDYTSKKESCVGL
Sequence of Acetylcholinesterase (Homo sapiens) (P22303 whole entry): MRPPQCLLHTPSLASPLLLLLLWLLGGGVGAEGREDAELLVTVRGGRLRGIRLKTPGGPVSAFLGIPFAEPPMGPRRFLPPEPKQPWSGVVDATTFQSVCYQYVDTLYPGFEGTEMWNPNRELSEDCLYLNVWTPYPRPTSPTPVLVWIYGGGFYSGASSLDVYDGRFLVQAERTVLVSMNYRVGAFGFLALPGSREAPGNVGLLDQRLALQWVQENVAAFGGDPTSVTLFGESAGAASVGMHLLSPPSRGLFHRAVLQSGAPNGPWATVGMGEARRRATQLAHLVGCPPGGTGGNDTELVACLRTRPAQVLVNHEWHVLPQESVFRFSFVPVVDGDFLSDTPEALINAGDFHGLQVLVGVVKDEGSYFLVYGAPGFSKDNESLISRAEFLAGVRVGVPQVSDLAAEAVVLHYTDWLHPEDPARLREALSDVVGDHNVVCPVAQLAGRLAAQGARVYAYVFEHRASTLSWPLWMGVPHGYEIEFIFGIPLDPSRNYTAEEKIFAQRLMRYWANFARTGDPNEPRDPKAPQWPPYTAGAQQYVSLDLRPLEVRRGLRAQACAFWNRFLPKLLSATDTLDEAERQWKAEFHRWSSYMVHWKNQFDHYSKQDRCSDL

Structure (SMILES) | IC50 (Cholinesterase [1]) | IC50 (Acetylcholinesterase) | IC50 (Cholinesterase [2]) | inhibition [3] | Ki (Cholinesterase [4]) | Papp [5]
COc1ccccc1C1CCN(Cc2c(C)[nH]c3ccccc23)CC1 | 12.3 µM | Not Active | – | – | – | –
COc1ccc(-c2cc(C(=O)N3CCN(Cc4ccccc4)CC3)c3ccccc3n2)cc1 | 3.3 µM | Not Active | 2.4 µM | 8% | 5.2 µM | 1.28 ×10⁻⁶ cm/s
